Experimental data taken from article PMC2918227 (Bioorganic & medicinal chemistry, 2010).

How the values were obtained:
[1] = molecular target: human 5-HT2A receptor (Homo sapiens, UniProt P28223); experiment: 5HT2A Ke determination in FLIPR assay; format: cell-based
[2] = Stability of the isolated free base on storage; format: physicochemical; conditions: yellow oil, converted to hydrochloride salt for long-term storage

human 5-HT2A receptor, sequence (P28223 whole entry): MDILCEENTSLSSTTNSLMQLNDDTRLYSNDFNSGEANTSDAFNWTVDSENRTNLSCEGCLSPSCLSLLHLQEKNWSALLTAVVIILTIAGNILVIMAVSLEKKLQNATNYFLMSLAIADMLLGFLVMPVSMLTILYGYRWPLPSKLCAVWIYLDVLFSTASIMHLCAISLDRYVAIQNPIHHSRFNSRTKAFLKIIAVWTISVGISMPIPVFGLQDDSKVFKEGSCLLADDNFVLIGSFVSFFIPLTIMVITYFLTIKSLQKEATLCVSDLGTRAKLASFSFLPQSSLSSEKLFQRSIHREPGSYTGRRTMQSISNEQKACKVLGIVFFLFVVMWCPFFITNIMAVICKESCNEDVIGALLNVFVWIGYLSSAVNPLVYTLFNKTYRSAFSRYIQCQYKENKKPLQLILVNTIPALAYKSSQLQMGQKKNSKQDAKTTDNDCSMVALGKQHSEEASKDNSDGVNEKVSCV

Row | SMILES | Kb [1] [µM] | stability of the compound [2]
1 | COc1cc2c3c(c1OC)-c1cc4c(cc1CC3N(C(C)=O)CC2)OCO4 (stereo not drawn) [Compound 8c, 1,2-dimethoxy-6-acetyl-5,6,6a,7-tetrahydro-4H-benzo[de][1,3]benzodioxolo[5,6-g]quinoline] | > 10 | –
2 | COc1cc2c3c(c1OC)-c1cc4c(cc1CC3N(S(C)(=O)=O)CC2)OCO4 (stereo not drawn) [Compound 8d, 1,2-dimethoxy-6-methanesulfonyl-5,6,6a,7-tetrahydro-4H-benzo[de][1,3]benzodioxolo[5,6-g]quinoline] | > 10 | –
3 | COc1cc2c3c(c1OC)-c1cc4c(cc1CC3NCC2)OCO4 (stereo not drawn) [Compound 8a, 1,2-dimethoxy-5,6,6a,7-tetrahydro-4H-benzo[de][1,3]benzodioxolo[5,6-g]quinoline] | – | unstable
